According to ChEMBL document CHEMBL1151562, “Stereoselective synthesis of novel analogues of 2-deoxy- and 2,3-dideoxynucleosides with potential antiviral activity” (Bioorg Med Chem Lett, 1994):
Activity calls are given as the source filed them.

What was measured:
Type in all cases: functional, cell-based
Daudi [1] = assay: Tested for antiproliferative activity against human tumor DAUDI EBV-immortalized B-lymphoid cells up to 72 hrs at concentration of 10 ug/ml; Inactive
Daudi [2] = assay: Tested for antiproliferative activity against human tumor DAUDI EBV-immortalized B-lymphoid cells up to 72 hrs at concentration of 2.5 ug/ml; Inactive
Daudi [3] = assay: Tested for antiproliferative activity against human tumor DAUDI EBV-immortalized B-lymphoid cells up to 72 hrs at concentration of 5 ug/ml; Inactive
[4] = Tested for cell count against human tumor Molt-4 cell line for antiproliferative activity; Inactive
Daudi [5] = assay: Tested for antiproliferative activity against human tumor DAUDI EBV-immortalized B-lymphoid cells up to 72 hrs at concentration of 1.25 ug/ml; Inactive
[6] = Tested for cell count against human tumor DAUDI EBV-immortalized B-lymphoid cells for antiproliferative activity; Inactive
K562 = assay: Tested for cell count against human tumor K562 erythromyeloid stem cells for antiproliferative activity; Inactive
[7] = Tested for cell count against human tumor MT-2 T-lymphoid cells for antiproliferative activity; Inactive
MT2 [8] = assay: Tested for antiproliferative activity against human tumor MT-2 T-lymphoid cells up to 72 hrs at concentration of 1.25 ug/ml; Inactive
MT2 [9] = assay: Tested for antiproliferative activity against human tumor MT-2 T-lymphoid cells up to 72 hrs at concentration of 10 ug/ml; Inactive
MT2 [10] = assay: Tested for antiproliferative activity against human tumor MT-2 T-lymphoid cells up to 72 hrs at concentration of 2.5 ug/ml; Inactive
MT2 [11] = assay: Tested for antiproliferative activity against human tumor MT-2 T-lymphoid cells up to 72 hrs at concentration of 5 ug/ml; Inactive
[12] = Tested for antiproliferative activity against human tumor U937 cell line up to 72 hrs at concentration of 1.25 ug/ml; Inactive
[13] = (§1) Tested for antiproliferative activity against human tumor U937 cell line up to 72 hrs at concentration of 10 ug/ml; Inactive
[14] = Tested for antiproliferative activity against human tumor U937 cell line up to 72 hrs at concentration of 2.5 ug/ml; Inactive
[15] = (§2) Tested for antiproliferative activity against human tumor U937 cell line up to 72 hrs at concentration of 5 ug/ml; Inactive
[16] = Tested for cell count against human tumor HL60 myeloid cells for antiproliferative activity; Inactive
MOLT-4 [17] = assay: Tested for antiproliferative activity against human tumor Molt-4 cell line up to 72 hrs at concentration of 5 ug/ml; Inactive
MOLT-4 [18] = assay: Tested for antiproliferative activity against human tumor Molt-4 cell line up to 72 hrs at concentration of 1.25 ug/ml; Inactive
MOLT-4 [19] = assay: Tested for antiproliferative activity against human tumor Molt-4 cell line up to 72 hrs at concentration of 10 ug/ml; Inactive
MOLT-4 [20] = assay: Tested for antiproliferative activity against human tumor Molt-4 cell line up to 72 hrs at concentration of 2.5 ug/ml; Inactive
HL-60 [21] = assay: as §2
HL-60 [22] = assay: Tested for antiproliferative activity against human tumor HL60 myeloid cells up to 72 hrs at concentration of 10 ug/ml; Inactive
Daudi [23] = assay: as §1; settings: U-937

Measured: Activity

C=CCC1C(O)[C@@H](CO)O[C@H]1n1ccc(=O)[nH]c1=O (single isomer, unassigned)
not listed: HL-60 [21] | HL-60 [22] | Daudi [23]
inactive: all other assays above

C=CC[C@H]1C[C@@H](CO)OC1n1ccc(=O)[nH]c1=O (some centres not stated)
not listed: HL-60 [22] | Daudi [23]
inactive: all other assays above

C=CCC1C(O)[C@@H](CO)O[C@H]1n1ccc(N)nc1=O (single isomer, unassigned)
not listed: HL-60 [21] | HL-60 [22] | Daudi [23]
inactive: all other assays above

CCC[C@H]1C[C@@H](CO)OC1n1ccc(=O)[nH]c1=O (some centres not stated)
not listed: HL-60 [21] | HL-60 [22] | Daudi [23]
inactive: all other assays above

CCCC1C(O)[C@@H](CO)O[C@H]1n1ccc(N)nc1=O (single isomer, unassigned)
not listed: HL-60 [21] | HL-60 [22] | Daudi [23]
inactive: all other assays above

C[C@H]1C[C@@H](CO)O[C@H]1n1ccc(=O)[nH]c1=O
not listed: HL-60 [21] | HL-60 [22] | Daudi [23]
inactive: all other assays above

CCCC1C(O)[C@@H](CO)O[C@H]1n1ccc(=O)[nH]c1=O (single isomer, unassigned)
not listed: HL-60 [21] | HL-60 [22] | Daudi [23]
inactive: all other assays above

CC1[C@@H](O)[C@@H](CO)O[C@H]1n1ccc(=O)[nH]c1=O (single isomer, unassigned; 5a)
not listed: [13] | HL-60 [21]
inactive: all other assays above

CC1[C@@H](O)[C@@H](CO)O[C@H]1n1ccc(=O)[nH]c1=O (single isomer, unassigned; 5b)
not listed: HL-60 [21] | HL-60 [22] | Daudi [23]
inactive: all other assays above

C[C@@H]1C[C@@H](CO)O[C@H]1n1ccc(=O)[nH]c1=O
not listed: HL-60 [21] | HL-60 [22] | Daudi [23]
inactive: all other assays above
